Test results as given in ChEMBL document CHEMBL1201862, “PubChem BioAssay data set” (2004).
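A five-concentration, 48-hour dose response in 96-well plates underlies each endpoint, interpolated linearly between surrounding concentrations. GI50 marks 50% less growth.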 Activity calls are given as the source filed them. Cut-off read from the data, not from the text of the source: active = GI50 up to about 1.1 µM and inactive = higher.

Experiments:
Experiment in all cases: inhibition of tumour cell growth, NCI panel, 48 h
786-0 = tested on: 786-0
A498 = tested on: A498
A549 = tested on: A549
ACHN = tested on: ACHN
HCC 2998 = tested on: HCC 2998
Malme-3M = tested on: Malme-3M
OVCAR-4 = tested on: OVCAR-4
OVCAR-5 = tested on: OVCAR-5
OVCAR-8 = tested on: OVCAR-8
SF-539 = tested on: SF-539
SK-MEL-28 = tested on: SK-MEL-28
SN12C = tested on: SN12C
SR = tested on: SR
SW-620 = tested on: SW-620
U-251 = tested on: U-251
CAKI-1 = tested on: CAKI-1
CCRF-CEM = tested on: CCRF-CEM
RXF 393 = tested on: RXF 393

Measured: GI50

CC1(c2ccccc2)CC(c2cccc([N+](=O)[O-])c2)=NO1 (stereo not drawn)
inactive: 786-0 > 100 µM | A498 > 100 µM | A549 > 100 µM | ACHN > 100 µM | HCC 2998 > 100 µM | Malme-3M > 100 µM | OVCAR-4 > 100 µM | OVCAR-5 > 100 µM | OVCAR-8 > 100 µM | SF-539 > 100 µM | SK-MEL-28 > 100 µM | SN12C > 100 µM | SR > 100 µM | SW-620 > 100 µM | U-251 > 100 µM

CCN(CC)c1c(C(=O)/C=C/c2ccc(F)cc2)c(-c2ccccc2)nn(C)c1=O
inactive: 786-0 10.3 µM | A498 7.57 µM | A549 8.69 µM | ACHN 6.9 µM | CAKI-1 11.6 µM | CCRF-CEM 2.11 µM | HCC 2998 3.3 µM | Malme-3M 13.3 µM | OVCAR-4 4.24 µM | OVCAR-5 22.4 µM | OVCAR-8 4.7 µM | RXF 393 3.13 µM | SK-MEL-28 14.1 µM | SN12C 6.93 µM | SW-620 8.59 µM | U-251 5.98 µM

COc1ccc2ccnc(Cc3ccc(OCc4ccccc4)c(OC)c3)c2c1
inactive: 786-0 19.2 µM | A498 21.8 µM | A549 24.4 µM | ACHN 23.6 µM | CAKI-1 29.2 µM | CCRF-CEM 27.4 µM | HCC 2998 19.3 µM | Malme-3M 16.9 µM | OVCAR-4 14.2 µM | OVCAR-5 40.3 µM | OVCAR-8 19.1 µM | SF-539 17.2 µM | SK-MEL-28 16.7 µM | SN12C 14.2 µM | SW-620 33.5 µM | U-251 20.9 µM

COC(OC)c1cccnc1C
inactive: 786-0 > 100 µM | A549 > 100 µM | ACHN > 100 µM | CAKI-1 > 100 µM | CCRF-CEM > 100 µM | Malme-3M > 100 µM | OVCAR-4 > 100 µM | OVCAR-5 > 100 µM | OVCAR-8 > 100 µM | RXF 393 > 100 µM | SF-539 > 100 µM | SK-MEL-28 > 100 µM | SN12C > 100 µM | SR > 100 µM | SW-620 > 100 µM | U-251 > 100 µM

COc1cc(C(CC(OC)OC)=C(C#N)C#N)cc(OC)c1OC
inactive: 786-0 21.4 µM | A498 8.13 µM | A549 28.8 µM | ACHN 26.7 µM | CAKI-1 34.3 µM | CCRF-CEM 5.36 µM | HCC 2998 18.7 µM | Malme-3M 26.1 µM | OVCAR-5 > 100 µM | OVCAR-8 20 µM | RXF 393 25.2 µM | SF-539 13.7 µM | SK-MEL-28 36.3 µM | SN12C 29.2 µM | SR 14.5 µM | SW-620 29.7 µM | U-251 13.3 µM

CCN(CC)C(=O)Cc1c(C(=O)N(CC)CC)c(=O)nc2sccn12
inactive: 786-0 > 100 µM | A498 > 100 µM | A549 > 100 µM | ACHN > 100 µM | CCRF-CEM > 100 µM | HCC 2998 > 100 µM | Malme-3M > 100 µM | OVCAR-4 > 100 µM | OVCAR-8 > 100 µM | RXF 393 > 100 µM | SF-539 > 100 µM | SK-MEL-28 > 100 µM | SN12C > 100 µM | SR > 100 µM | SW-620 > 100 µM | U-251 > 100 µM

CON(C)C(=O)CCCO
inactive: 786-0 > 100 µM | A549 > 100 µM | ACHN > 100 µM | CAKI-1 > 100 µM | CCRF-CEM > 100 µM | Malme-3M > 100 µM | OVCAR-4 > 100 µM | OVCAR-8 > 100 µM | RXF 393 > 100 µM | SF-539 > 100 µM | SK-MEL-28 > 100 µM | SN12C > 100 µM | SR > 100 µM | SW-620 > 100 µM | U-251 > 100 µM

c1ccc2c(NCCCCCCNc3cccc4ccccc34)cccc2c1
inactive: 786-0 > 100 µM | A498 > 100 µM | A549 42 µM | ACHN > 100 µM | CAKI-1 > 100 µM | CCRF-CEM 38.8 µM | HCC 2998 > 100 µM | Malme-3M > 100 µM | OVCAR-4 66.1 µM | OVCAR-5 > 100 µM | OVCAR-8 > 100 µM | SF-539 > 100 µM | SK-MEL-28 > 100 µM | SN12C > 100 µM | SW-620 74.5 µM | U-251 > 100 µM

O=[N+]([O-])c1cccc(C(O)/C(=N/O)c2nc3ccc(Cl)cc3nc2O)c1 (stereo not drawn)
inactive: 786-0 > 100 µM | A549 > 100 µM | ACHN > 100 µM | CCRF-CEM > 100 µM | HCC 2998 > 100 µM | Malme-3M > 100 µM | OVCAR-4 > 100 µM | OVCAR-5 > 100 µM | OVCAR-8 > 100 µM | RXF 393 > 100 µM | SF-539 > 100 µM | SK-MEL-28 > 100 µM | SN12C > 100 µM | SW-620 > 100 µM

Cn1c2c(c3ccccc31)CCN(CCN1CCN(c3cccc(Cl)c3)CC1)C2=O
inactive: 786-0 > 100 µM | A498 > 100 µM | A549 > 100 µM | ACHN > 100 µM | CCRF-CEM > 100 µM | OVCAR-8 > 100 µM | RXF 393 67.1 µM | SF-539 > 100 µM | SK-MEL-28 > 100 µM | SN12C 32.1 µM | SW-620 63.4 µM | U-251 > 100 µM

O=C(Nc1ccccc1-c1nc2ccccc2[nH]c1=O)c1ccccc1
inactive: 786-0 17.3 µM | A498 20.4 µM | A549 25.9 µM | ACHN 20.1 µM | CAKI-1 29.9 µM | CCRF-CEM > 100 µM | HCC 2998 15.4 µM | Malme-3M 32.1 µM | OVCAR-4 19.9 µM | OVCAR-5 63.4 µM | OVCAR-8 22.9 µM | RXF 393 21.2 µM | SF-539 20.6 µM | SK-MEL-28 43.5 µM | SN12C 27.3 µM | SW-620 27.9 µM | U-251 23.3 µM

C=CCC1C(=O)CC2(C)C(CC=C)C(=O)CC12C (stereo not drawn)
inactive: 786-0 > 100 µM | A549 > 100 µM | ACHN > 100 µM | CAKI-1 > 100 µM | CCRF-CEM > 100 µM | HCC 2998 > 100 µM | Malme-3M > 100 µM | OVCAR-4 > 100 µM | OVCAR-5 > 100 µM | OVCAR-8 > 100 µM | SF-539 > 100 µM | SK-MEL-28 > 100 µM | SN12C > 100 µM | SR > 100 µM | SW-620 > 100 µM | U-251 > 100 µM

CCOC(=O)C1(CC)CCCCC(=O)N1 (stereo not drawn)
inactive: 786-0 > 100 µM | A549 > 100 µM | ACHN > 100 µM | CAKI-1 > 100 µM | CCRF-CEM > 100 µM | HCC 2998 > 100 µM | Malme-3M > 100 µM | OVCAR-4 > 100 µM | OVCAR-8 > 100 µM | RXF 393 > 100 µM | SK-MEL-28 > 100 µM | SN12C > 100 µM | SW-620 > 100 µM | U-251 > 100 µM

CCN(CC)Cc1cc(Nc2ccnc3ccc4nn(C)nc4c23)ccc1O
inactive: 786-0 11.8 µM | A549 21.1 µM | ACHN 9.25 µM | CAKI-1 28.8 µM | CCRF-CEM > 100 µM | HCC 2998 13.3 µM | Malme-3M 16.9 µM | OVCAR-4 10.4 µM | OVCAR-5 12.6 µM | OVCAR-8 11.4 µM | RXF 393 9.25 µM | SF-539 13.6 µM | SK-MEL-28 14 µM | SN12C 11.3 µM | SR 74.6 µM | SW-620 5.55 µM | U-251 15.3 µM

C=Cc1ccc(C)[n+](C[Si](C)(C)O[Si](C)(C)C)c1
inactive: 786-0 > 100 µM | A549 > 100 µM | ACHN > 100 µM | CAKI-1 > 100 µM | CCRF-CEM > 100 µM | HCC 2998 > 100 µM | Malme-3M > 100 µM | OVCAR-4 42.3 µM | OVCAR-5 > 100 µM | OVCAR-8 > 100 µM | SF-539 > 100 µM | SK-MEL-28 > 100 µM | SN12C > 100 µM | SR > 100 µM | SW-620 > 100 µM | U-251 > 100 µM

CSc1ccc2c(cc1=O)[C@@H](NC(=O)c1ccc(Cl)cc1)CCc1cc(O)c(O)c(O)c1-2
inactive: 786-0 > 100 µM | A498 > 100 µM | A549 53 µM | ACHN > 100 µM | CAKI-1 45.9 µM | CCRF-CEM 28.1 µM | HCC 2998 > 100 µM | Malme-3M > 100 µM | OVCAR-4 29.6 µM | OVCAR-5 > 100 µM | OVCAR-8 50 µM | RXF 393 > 100 µM | SF-539 29.8 µM | SK-MEL-28 80 µM | SN12C 24.5 µM | SW-620 19.5 µM | U-251 21.8 µM

Cc1c(O)c(=O)ccn1C1OC(CO)C(O)C1O (stereo not drawn)
inactive: 786-0 85.9 µM | A498 > 100 µM | A549 > 100 µM | ACHN > 100 µM | CAKI-1 > 100 µM | CCRF-CEM 39.5 µM | Malme-3M > 100 µM | OVCAR-4 > 100 µM | OVCAR-5 > 100 µM | OVCAR-8 > 100 µM | RXF 393 > 100 µM | SK-MEL-28 > 100 µM | SN12C > 100 µM | SR > 100 µM | SW-620 > 100 µM | U-251 > 100 µM

Cc1cc2c(ccc3c(C)cc(=O)oc32)o1
inactive: 786-0 > 100 µM | A549 > 100 µM | ACHN > 100 µM | CAKI-1 > 100 µM | CCRF-CEM > 100 µM | HCC 2998 > 100 µM | Malme-3M > 100 µM | OVCAR-4 > 100 µM | OVCAR-5 > 100 µM | OVCAR-8 > 100 µM | RXF 393 78.3 µM | SF-539 > 100 µM | SK-MEL-28 > 100 µM | SN12C > 100 µM | SR > 100 µM | SW-620 > 100 µM | U-251 > 100 µM
